Test results as given in paper PMC12669278, “VDAC1-interacting proteins: binding site mapping and their derived peptides induce apoptosis and multifaceted cellular effects” (Apoptosis, 2025).

Biological target: purified VDAC1 (Homo sapiens, UniProt P21796)
Assay: Glass-bound peptide array probed with purified VDAC1 and anti-VDAC1 antibodies
Assay type: binding
Design: key: +: low; ++: medium; +++: high
Conditions: glass-bound peptide array incubated 4 h with purified VDAC1 (64 nM), chemiluminescence; for Spot intensity, detected using anti-N-terminus VDAC1: antibody against VDAC1 N-terminus; for Spot intensity, detected using anti-VDAC1 internal sequence: antibody against VDAC1 amino acids 150-250
Description: A customized peptide array was produced by INTAVIS Peptide Services (GmbH & Co. KG, Tübingen, Germany). It comprised 768 peptide sequences derived from 19 VDAC1-interacting proteins that were arrayed on a glass slide. Each peptide was composed of 25 amino acids with an overlap of 15 amino acids with the peptides before and following it.
The interaction of purified VDAC1 with glass-bound peptide arrays was assessed by washing the slide three times, 10 min each, with TBST (150 mM NaCl, 50 mM Tris/HCl, pH 7.4, 0.1% Tween-20), followed by overnight incubation with blocking buffer (TBS, pH 7.8, containing low-fat dry milk, 2.5%, w/v) at 4 °C. Then slides were incubated with purified VDAC1 in protein-interacting buffer (20 mM HEPES, 100 mM KCl, pH,7.4, PBS) for 4 h at room temperature (RT). After washing, with TBST, slides were incubated overnight at 4 °C with anti-VDAC1 antibody against a sequence of 150–250 amino acids or against the VDAC1-N-terminus. Slides were then washed with TBST, followed by the appropriate secondary anti-HRP conjugated antibody for 2 h at RT. They were washed again with TBST and developed using enhanced chemiluminescence EZ-ECL (Biological Industries), according to the manufacturer’s instructions. The signal was captured in the dark using FUSION-FX (Vilber Lourmat) software.

Chain of purified VDAC1 (P21796 whole entry, species assumed): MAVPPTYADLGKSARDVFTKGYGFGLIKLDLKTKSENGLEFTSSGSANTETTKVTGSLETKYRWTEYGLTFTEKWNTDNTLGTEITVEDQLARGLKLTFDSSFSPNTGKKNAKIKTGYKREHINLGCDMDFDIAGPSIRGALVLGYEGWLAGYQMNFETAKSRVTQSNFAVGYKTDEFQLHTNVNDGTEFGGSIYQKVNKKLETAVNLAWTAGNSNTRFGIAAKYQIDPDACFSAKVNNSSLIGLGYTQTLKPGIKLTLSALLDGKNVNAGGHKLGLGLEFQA

Sequence | Spot intensity, detected using anti-N-terminus VDAC1 | Spot intensity, detected using anti-VDAC1 internal sequence
FRGLGDCLVKITKSDGIRGLYQGFS [1G5, array peptide from ANT3] | +++ | 
FKDKYKQIFLGGVDKHTQFWRYFAG [1F22, array peptide from ANT3] | + | 
QGCLASVGVLTQSCTTPHLHSILKA [2F13] | ++ | 
AIYDICRRNLDIERPTYTNLNRLIS [2A11, array peptide from tubulin alpha 1b] | +++ | +
STRIQQQLGQLTLENLQMLPESEDE [2G1] | ++ | 
HSSYPAGTEDDEGMGEEPSPFRGRS [1A9, array peptide from BAD] | ++ | 
TVPTPHLDGKHVVFGQVIKGIGVAR [1I7, array peptide from cyclophilin D] | + | 
IFVGIKKKEERADLIAYLKKATNE [1D15, array peptide from cytochrome c] | ++ | +
KDFLAGGIAAAISKTAVAPIERVKL [1F13, array peptide from ANT3] | ++ | 
SVKRVTQDPKLQMGKKLPLHLTLPQ [1N4, array peptide from CD4] | ++ | 
KFHGTVKAENGKLVINGNPITIFQE [2B20, array peptide from GAPDH1] |  | +++
MGKVKVGVNGFGRIGRLVTRAAFNS [2B14, array peptide from GAPDH1] | +++ | 
AGATSSLTPSRGPVSPSVSFQPLAR [1K9, array peptide from MAVS] | +++ | 
IKKKEERADLIAYLKKATNE [1D16, array peptide from cytochrome c] | ++ | +
SNTTAIAEAWARLDHKFDLMYAKRA [2B6, array peptide from tubulin alpha 1b] | ++ | 
IMKTGALLLQGFIQDRAGRMGGEAP [1A22, array peptide from BAX] | +++ | 
SSWTRVFQSWWDRNLGRGSSAPSQ [1A17, array peptide from BAD] | + | 
DQGGWGLPLAESLKRLMSLSPGRPP [1B13, array peptide from BAX] | +++ | +
RVVALFYFASKLVLKALCTKVPELI [1B8, array peptide from BAX] | ++ | 
FRDEGGKAFFKGAWSNVLRGMGGAF [1G17, array peptide from ANT3] | + | 
TKVPELIRTIMGWTLDFLRERLLGW [1B10, array peptide from BAX] | +++ | 
PYQLTWGRPSTRIQQQLGQLTLENL [2F24] | +++ | 

Sequence | Spot intensity, detected using anti-N-terminus VDAC1 | Spot intensity, detected using anti-VDAC1 internal sequence
SKLVLKALCTKVPELIRTIMGWTLD [1B9, array peptide from BAX] | + | 
DQCTGLQGFLVFHSFGGGTGSGFTS [2A2, array peptide from tubulin alpha 1b] | + | 
TAFQGMLRKLDIKNEDDVKSLSRVM [2E5, array peptide from Mcl-1] | + | 
VGKVIPELNGKLTGMAFRVPTANVS [2C14, array peptide from GAPDH1] | +++ | 
VSSITASLRFDGALNVDLTEFQTNL [2A14, array peptide from tubulin alpha 1b] | + | +++
YQVSPLAARLLYPYLAWLAFTTTLN [1H11, array peptide from TSPO] |  | +
TGSGFTSLLMERLSVDYGKKSKLEF [2A4, array peptide from tubulin alpha 1b] | + | +
ASIHGYLGIVELLVSLGADVNAQEP [2F17] | ++ | +
KVQRAVCMLSNTTAIAEAWARLDHK [2B5, array peptide from tubulin alpha 1b] | + | 
KGLPRPKSAGTATQMRQSSSWTRVF [1A15, array peptide from BAD] | ++ | 
RERLLGWIQDQGGWGLPLAESLKRL [1B12, array peptide from BAX] | +++ | +
KIISNASCTTNCLAPLAKVIHDNFG [2C6, array peptide from GAPDH1] | +++ | ++
FDGALNVDLTEFQTNLVPYPRIHFP [2A15, array peptide from tubulin alpha 1b] |  | ++
KLQMGKKLPLHLTLPQALPQYAGSG [1N5, array peptide from CD4] | ++ | 
DELYRQSLEIISRYLREQATGAKDT [2D23, array peptide from Mcl-1] |  | +
GTATQMRQSSSWTRVFQSWWDRNLG [1A16, array peptide from BAD] | ++ | 
AVIGGSAGASPPSTLTPDSRRVARP [2D10, array peptide from Mcl-1] | + | 
AVDTDSPREVFFRVAADMFSDGNFN [1B5, array peptide from BAX] | +++ | 
GNLANVIRYFPTQALNFAFKDKYKQ [1F20, array peptide from ANT3] | +++ | +
LDIERPTYTNLNRLISQIVSSITAS [2A12, array peptide from tubulin alpha 1b] |  | ++
DDEGMGEEPSPFRGRSRSAPPNLWA [1A10, array peptide from BAD] | ++ | 

More lines, now with the values ahead:

Spot intensity, detected using anti-N-terminus VDAC1 | Spot intensity, detected using anti-VDAC1 internal sequence | Sequence
+ |  | GRTWNDPSVQQDIKFLPFKVVEKKT [2K5, array peptide from BiP1]
+ | ++ | IEIESFYEGEDFSETLTRAKFEELN [2L4, array peptide from BiP1]
++ |  | ISAMVLTKMKETAEAYLGKKVTHAV [2K10, array peptide from BiP1]
+ | ++ | NMKLTRAQFEGIVTDLIRRTIAPCQ [2O9, array peptide from HSP-70]
+ |  | TPVQSRVVQGKEPAHLMSLFGGKPM [2I12, array peptide from gelsolin isoform b]
++ |  | ALSSQHQARIEIESFYEGEDFSETL [2L3, array peptide from BiP1]
++ |  | QVSVLPEGGETPLFKQFFKNWRDPD [2H20, array peptide from gelsolin isoform b]
++ | + | ERPLTKDNHLLGTFDLTGIPPAPRG [2L22, array peptide from BiP1]
 | + | EVAASAILTAQLDEELGGTPVQSRV [2I10, array peptide from gelsolin isoform b]
+ |  | RAVQHREVQGFESATFLGYFKSGLK [2G18, array peptide from gelsolin isoform b]
+ |  | LIGIPPAPRGVPQIEVTFDIDANGI [2P3, array peptide from HSP-70]
+ |  | GGVFTKLINRNTTIPTKKSQVFSTA [2O21, array peptide from HSP-70]
+ |  | KCELSSSVQTDINLPYLTMDSSGPK [2O6, array peptide from HSP-70]
++ | + | TDVLLLDVTPLSLGIETLGGVFTKL [2O19, array peptide from HSP-70]
+ |  | YKGGTSREGGQTAPASTRLFQVRAN [2I15, array peptide from gelsolin isoform b]
+ |  | TEDELPYDDCVFGGQRLTL [2G6]
+++ | + | LLGTFDLTGIPPAPRGVPQIEVTFE [2L23, array peptide from BiP1]
+ |  | RGPTAARHQDSWNGLSHEAFRLVSR [2M21, array peptide from HSP-70]
+ |  | EDFSETLTRAKFEELNMDLFRSTMK [2L5, array peptide from BiP1]
 | ++ | QLTLENLQMLPESEDEESYDTESEF [2G2]
